Test results reported in ChEMBL document CHEMBL1649220, “New variant of CTX-M-type extended-spectrum beta-lactamases, CTX-M-71, with a Gly238Cys substitution in a Klebsiella pneumoniae isolate from Bulgaria” (2009).

Columns and labels:
[1] = target: T1, Extended spectrum beta-lactamase CTX-M-71 (Klebsiella pneumoniae) (UniProt C8YUV9); test: Ratio of Kcat to Km for Klebsiella pneumoniae AH24-270 CTX-M-71 beta-lactamase; parameters: unit not given here
T1 sequence (whole entry): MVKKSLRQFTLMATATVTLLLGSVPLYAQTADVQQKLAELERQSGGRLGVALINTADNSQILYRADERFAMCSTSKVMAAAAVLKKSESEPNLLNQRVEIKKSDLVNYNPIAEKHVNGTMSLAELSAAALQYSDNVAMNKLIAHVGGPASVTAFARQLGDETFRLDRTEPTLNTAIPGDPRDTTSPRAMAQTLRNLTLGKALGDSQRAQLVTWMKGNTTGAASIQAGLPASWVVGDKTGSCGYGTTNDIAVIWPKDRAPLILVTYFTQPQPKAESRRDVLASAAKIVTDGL

[2] = target: Beta-lactamase AH27 CTX-M-15 (Klebsiella pneumoniae) (UniProt Q2PUH3); test: Ratio of Kcat to Km for Klebsiella pneumoniae AH27 CTX-M-15 beta-lactamase; parameters: unit not given here

SMILES	Ratio [1]	Ratio [2]
CCN1CCN(C(=O)N[C@@H](C(=O)N[C@@H]2C(=O)N3[C@@H]2SC(C)(C)[C@@H]3C(=O)O)c2ccccc2)C(=O)C1=O	8.4	–
C[C@H]1[C@H](NC(=O)/C(=N\OC(C)(C)C(=O)O)c2csc(N)n2)C(=O)N1S(=O)(=O)O	0.084	–
CO/N=C(\C(=O)N[C@@H]1C(=O)N2C(C(=O)O)=C(COC(N)=O)CS[C@H]12)c1ccco1	0.1	0.25
CO/N=C(\C(=O)N[C@@H]1C(=O)N2C(C(=O)O)=C(COC(C)=O)CS[C@H]12)c1csc(N)n1	0.5	6.77
CC1(C)S[C@@H]2[C@H](NC(=O)[C@H](N)c3ccc(O)cc3)C(=O)N2[C@H]1C(=O)O	9.4	–
CC(C)(O/N=C(\C(=O)N[C@@H]1C(=O)N2C(C(=O)[O-])=C(C[n+]3ccccc3)CS[C@H]12)c1csc(N)n1)C(=O)O	0.0038	0.0186
O=C(Cc1cccs1)N[C@@H]1C(=O)N2C(C(=O)[O-])=C(C[n+]3ccccc3)CS[C@H]12	3.8	4.82
CC1(C)S[C@@H]2[C@H](NC(=O)Cc3ccccc3)C(=O)N2[C@H]1C(=O)O	11.8	5.4
